Measured values reported in US20040142971A1, “BENZOTHIOPHENE COMPOUNDS HAVING ANTIINFECTIVE ACTIVITY” (GeneSoft, Inc., priority 2001, published 2004).

Experiments:
Assay in all cases: MIC, NCCLS broth microdilution
B. Cereus ATCC 11778 = assay type: cell-based, Bacillus cereus; conditions: A = B. Cereus ATCC 11778
Description: (§1) In vitro biological activity data were collected for a variety of microorganisms, including Bacillus cereus (ATCC 11778), Staphylococcus aureus (ATCC 27660 (a methicillin resistant strain (MRSA), ATCC 33591 and ATCC 43300); ATCC 13709, a methicillin sensitive strain (MSSA)); Streptococcus pneumoniae (ATCC 51422, a penicillin resistant strain (PRSP)), Enterococcus faecium (ATCC 51559, a vancomycin resistant strain (VRE)), and Staphylococcus epidermidis (ATCC 700586, a methycillin resistant strain (MRSE)). Additionally, antifungal activity data were collected for Candida albicans (ATCC 38247). Minimal inhibition concentrations (MIC's) were determined using the National Committee for Clinical Laboratory Standards (NCCLS) broth microdilution assay in microtiter plates, as set forth in: (1) the guidelines of the National Committee for Clinical Laboratory Standards (NCCLS) Document M7-A4 (NCCLS, 1997); (2) the guidelines of the National Committee for Clinical Laboratory Standards (NCCLS) Document M11-A4 (NCCLS, 1997); and (3) the guidelines and reference method of the National Committee for Clinical Laboratory Standards (NCCLS) Document M27-T (NCCLS, 1995). For antifungal essays, the method recommended in Murray, PR., 1995 Manual of Clinical Microbiology (ASM Press, Washington, D.C.), was employed.

[1] = tested on: E. faecium ATCC 51559 (vancomycin resistant strain, VRE); assay type: cell-based, Enterococcus faecium; conditions: B = E. faecium ATCC 51559
Description: as §1

[2] = tested on: S. aureus ATCC 13709 (methicillin sensitive strain, MSSA); assay type: cell-based, Staphylococcus aureus; conditions: C = S. aureus ATCC 13709
Description: as §1

[3] = tested on: S. aureus ATCC 27660 (methicillin resistant strain, MRSA); assay type: cell-based, Staphylococcus aureus; conditions: D = S. aureus ATCC 27660
Description: as §1

S. aureus ATCC 33591 = assay type: cell-based, Staphylococcus aureus; conditions: E = S. aureus ATCC 33591
Description: as §1

[4] = tested on: S. epidermidis ATCC 700586 (methycillin resistant strain, MRSE); assay type: cell-based, Staphylococcus epidermidis; conditions: G = S. epidermidis ATCC 700586
Description: as §1

[5] = tested on: S. pneumoniae ATCC 51422 (penicillin resistant strain, PRSP); assay type: cell-based, Streptococcus pneumoniae; conditions: H = S. pneumoniae ATCC 51422
Description: as §1

| Minimum Inhibitory Concentration (MIC) (B. Cereus ATCC 11778) | Minimum Inhibitory Concentration (MIC) [1] | Minimum Inhibitory Concentration (MIC) [2] | Minimum Inhibitory Concentration (MIC) [3] | Minimum Inhibitory Concentration (MIC) (S. aureus ATCC 33591) | Minimum Inhibitory Concentration (MIC) [4] | Minimum Inhibitory Concentration (MIC) [5] | SMILES |
| --- | --- | --- | --- | --- | --- | --- | --- |
| >32 µg/mL | +++ (+++ = MIC ≦ 4) | +++ (+++ = MIC ≦ 4) | +++ (+++ = MIC ≦ 4) | +++ (+++ = MIC ≦ 4) | +++ (+++ = MIC ≦ 4) | +++ (+++ = MIC ≦ 4) | Cn1cc(NC(=O)c2cc3ccccc3cn2)cc1C(=O)Nc1cc(C(=O)Nc2cc(C(=O)NCCN3CCOCC3)n(CCN3CCOCC3)c2)n(C)c1 [Ib-56] |
| +++ (+++ = MIC ≦ 4) | +++ (+++ = MIC ≦ 4) | +++ (+++ = MIC ≦ 4) | +++ (+++ = MIC ≦ 4) | +++ (+++ = MIC ≦ 4) | +++ (+++ = MIC ≦ 4) | +++ (+++ = MIC ≦ 4) | Cn1cc(NC(=O)c2cc(NC(=O)c3cc4ccccc4cn3)no2)cc1C(=O)OCCN1CCOCC1 [Ib-61] |
| + (+ = MIC from 12 to 32, inclusive) | +++ (+++ = MIC ≦ 4) | +++ (+++ = MIC ≦ 4) | +++ (+++ = MIC ≦ 4) | +++ (+++ = MIC ≦ 4) | +++ (+++ = MIC ≦ 4) | +++ (+++ = MIC ≦ 4) | Cn1cc(NC(=O)c2cc(NC(=O)c3cc(NC(=O)c4cc5ccccc5cn4)c[nH]3)cn2C)cc1C(=O)NCCN1CCCCC1 [Ib-62] |
| +++ (+++ = MIC ≦ 4) | +++ (+++ = MIC ≦ 4) | +++ (+++ = MIC ≦ 4) | +++ (+++ = MIC ≦ 4) | +++ (+++ = MIC ≦ 4) | +++ (+++ = MIC ≦ 4) | +++ (+++ = MIC ≦ 4) | Cc1cc(NC(=O)c2cc(NC(=O)c3cc(NC(=O)c4cc5ccccc5cn4)cn3C)cn2CCN2CCOCC2)sn1 [Ib-63] |
| +++ (+++ = MIC ≦ 4) | +++ (+++ = MIC ≦ 4) | +++ (+++ = MIC ≦ 4) | +++ (+++ = MIC ≦ 4) | +++ (+++ = MIC ≦ 4) | +++ (+++ = MIC ≦ 4) | +++ (+++ = MIC ≦ 4) | Cc1cc(NC(=O)c2cc(NC(=O)c3cc(NC(=O)c4cc5ccccc5cn4)cn3C)cn2CCN2CCCC2)sn1 [Ib-65] |
| +++ (+++ = MIC ≦ 4) | +++ (+++ = MIC ≦ 4) | +++ (+++ = MIC ≦ 4) | +++ (+++ = MIC ≦ 4) | +++ (+++ = MIC ≦ 4) | +++ (+++ = MIC ≦ 4) | +++ (+++ = MIC ≦ 4) | Cc1cc(NC(=O)c2cc(NC(=O)c3cc(NC(=O)c4cc5ccccc5cn4)cn3C)cn2CCCN(C)C)sn1 [Ib-66] |
| +++ (+++ = MIC ≦ 4) | +++ (+++ = MIC ≦ 4) | +++ (+++ = MIC ≦ 4) | +++ (+++ = MIC ≦ 4) | +++ (+++ = MIC ≦ 4) | +++ (+++ = MIC ≦ 4) | +++ (+++ = MIC ≦ 4) | Cn1cc(NC(=O)c2cc(NC(=O)c3cc(NC(=O)c4cc5ccccc5cn4)cn3C)c[nH]2)cc1C(=O)NCCN1CCOCC1 [Ib-67] |
| +++ (+++ = MIC ≦ 4) | +++ (+++ = MIC ≦ 4) | +++ (+++ = MIC ≦ 4) | +++ (+++ = MIC ≦ 4) | +++ (+++ = MIC ≦ 4) | +++ (+++ = MIC ≦ 4) | +++ (+++ = MIC ≦ 4) | Cn1cc(NC(=O)c2cc3ccccc3cn2)cc1C(=O)Nc1cc(C(=O)Nc2cc(C(=O)NCCN3CCCCC3)n(CCN3CCCCC3)c2)n(C)c1 [Ib-68] |
| >32 µg/mL | +++ (+++ = MIC ≦ 4) | +++ (+++ = MIC ≦ 4) | +++ (+++ = MIC ≦ 4) | +++ (+++ = MIC ≦ 4) | +++ (+++ = MIC ≦ 4) | +++ (+++ = MIC ≦ 4) | Cn1cc(NC(=O)c2cc(NC(=O)c3cc(NC(=O)c4cc5ccccc5cn4)c[nH]3)cn2C)cc1C(=O)NCCc1ccccn1 [Ib-69] |

| SMILES | Minimum Inhibitory Concentration (MIC) (B. Cereus ATCC 11778) | Minimum Inhibitory Concentration (MIC) [1] | Minimum Inhibitory Concentration (MIC) [2] | Minimum Inhibitory Concentration (MIC) [3] | Minimum Inhibitory Concentration (MIC) (S. aureus ATCC 33591) | Minimum Inhibitory Concentration (MIC) [4] | Minimum Inhibitory Concentration (MIC) [5] |
| --- | --- | --- | --- | --- | --- | --- | --- |
| Cn1cc(NC(=O)c2cc(NC(=O)c3cc(NC(=O)c4sc5cc6c(cc5c4Cl)OCO6)cn3C)cn2C)cc1C(=O)NCCN1CCOCC1 [Ib-20d] | +++ (+++ = MIC ≦ 4) | +++ (+++ = MIC ≦ 4) | +++ (+++ = MIC ≦ 4) | +++ (+++ = MIC ≦ 4) | +++ (+++ = MIC ≦ 4) | +++ (+++ = MIC ≦ 4) | +++ (+++ = MIC ≦ 4) |
| Cn1cc(NC(=O)c2cc(NC(=O)c3sc4cc5c(cc4c3Cl)OCO5)cn2C)cc1C(=O)NCCN1CCOCC1 [Ib-20e] | +++ (+++ = MIC ≦ 4) | +++ (+++ = MIC ≦ 4) | +++ (+++ = MIC ≦ 4) | +++ (+++ = MIC ≦ 4) | +++ (+++ = MIC ≦ 4) | +++ (+++ = MIC ≦ 4) | +++ (+++ = MIC ≦ 4) |
| Cn1cc(NC(=O)c2cc(NC(=O)c3cc(NC(=O)c4sc5cc6c(cc5c4Cl)OCO6)cn3C)cn2C)cc1C(=O)NCCN1CCCC1 [Ib-20g] | +++ (+++ = MIC ≦ 4) |  | +++ (+++ = MIC ≦ 4) | +++ (+++ = MIC ≦ 4) | +++ (+++ = MIC ≦ 4) | +++ (+++ = MIC ≦ 4) | +++ (+++ = MIC ≦ 4) |
| CN1CCCC1CCNC(=O)c1cc(NC(=O)c2cc(NC(=O)c3cc(NC(=O)c4sc5cc6c(cc5c4Cl)OCO6)cn3C)cn2C)cn1C (stereo not drawn) [Ib-20m] | +++ (+++ = MIC ≦ 4) | +++ (+++ = MIC ≦ 4) | +++ (+++ = MIC ≦ 4) | +++ (+++ = MIC ≦ 4) | +++ (+++ = MIC ≦ 4) | +++ (+++ = MIC ≦ 4) | +++ (+++ = MIC ≦ 4) |
| Cn1cc(NC(=O)c2sc3cc4c(cc3c2Cl)OCO4)cc1C(=O)NCCN1CCCC1 [Ib-20o] | +++ (+++ = MIC ≦ 4) | +++ (+++ = MIC ≦ 4) | +++ (+++ = MIC ≦ 4) | +++ (+++ = MIC ≦ 4) | +++ (+++ = MIC ≦ 4) | +++ (+++ = MIC ≦ 4) | +++ (+++ = MIC ≦ 4) |
| Cn1cc(NC(=O)c2sc3cc4c(cc3c2Cl)OCO4)cc1C(=O)NCCN1CCSCC1 [Ib-20p] | +++ (+++ = MIC ≦ 4) | +++ (+++ = MIC ≦ 4) | +++ (+++ = MIC ≦ 4) | +++ (+++ = MIC ≦ 4) | +++ (+++ = MIC ≦ 4) | +++ (+++ = MIC ≦ 4) | +++ (+++ = MIC ≦ 4) |
| CN1CCN(CCCNC(=O)c2cc(NC(=O)c3sc4cc5c(cc4c3Cl)OCO5)cn2C)CC1 [Ib-20r] | +++ (+++ = MIC ≦ 4) | +++ (+++ = MIC ≦ 4) | +++ (+++ = MIC ≦ 4) | +++ (+++ = MIC ≦ 4) | +++ (+++ = MIC ≦ 4) | +++ (+++ = MIC ≦ 4) | +++ (+++ = MIC ≦ 4) |
